“Also recorded” adds a separate entry of the source.
Legend:
[1] = Tasting in strawberry drink; settings: 2 ppm; 7% sucrose, 0.1% citric acid, strawberry flavour 0.015%
Method in brief: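 Expert tasters profiled samples for authentic taste, mouthfeel, fullness, saltiness, salivation, umami, sweetness, juiciness, richness, long-lastingness and fattiness. Base: water with 7% sucrose, 0.1% citric acid and a proprietary strawberry flavour at 0.015%.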

[2] = Tasting in mango still beverage, 6% clear mango juice; settings: 1 ppm; 6% clear mango juice (full juice)
Description: Mango Flavoured Still Beverage Containing Different Levels of Juice,
In a Mango flavoured still beverage, sweetened with 8% sucrose and containing 0.1% citric acid and 1%, 4% and 6% clear mango juice flavoured with a proprietary Mango flavour @ 0.05%, C18:2-gaba and C18:2-Pro were added, as such (separate) and in combination.
All samples were evaluated by expert tasters. Tasters were asked to describe the samples focusing on authentic taste, juicy mouthfeel, enhancement, richness, juiciness, long lastingness, salivation, sweetness.
In a Mango-flavoured still beverage, sweetened with 8% sucrose & containing 0.1% citric acid and 6% clear mango juice flavoured with Mango flavour@0.05%, C18:2-gaba and C18:2-Pro were added, as such (separate) and in combination.
Base is water, 8% sucrose, 0.1% citric acid, 6% clear mango juice (full juice), flavoured with Mango flavor, dosed at 0.05%.

[3] = Tasting in vanilla milk 0.15% fat; settings: 2 ppm, 4% sucrose, Vaniline 10 ppm + vanilla extract 0.03%
Method in brief: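 Expert panel tasted samples in 0.15% fat milk sweetened with 4% sucrose and flavoured with vaniline at 10 ppm plus vanilla extract at 0.03%. Descriptors covered authentic taste, mouthfeel, fullness, saltiness, salivation, umami, sweetness, juiciness, richness, long-lastingness and fattiness.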

[4] = Test on Baileys cream liqueur; settings: 1 ppm, 17% alcohol
Description: Test on Baileys Cream Liqueur:
In Baileys cream liqueur (Market Product) containing 17% alcohol, carbohydrates 25% and 13% fat C18:2-gaba was added at 1 ppm.
Samples were evaluated by expert tasters. Tasters were asked to describe the samples focusing on authentic taste, alcohol impact, mouthfeel, fullness, salivation, sweetness, bitterness, richness, long lastingness and fattiness.
Base is Baileys cream liqueur
Samples were evaluated by expert tasters. Tasters were asked to describe the samples focusing on authentic taste, mouthfeel, fullness, salty-ness, salivation, umami, sweetness, juiciness, richness, long lastingness and fattiness.
Base: Baileys cream liqueur (containing 17% alcohol, carbohydrates 25% and 13% fat)

[5] = Tasting in strawberry flavoured sugar sweetened yoghurt; settings: 2 ppm, 1.5% fat yoghurt, 8% sucrose, strawberry flavour 0.015%
Description: Strawberry Flavoured Sugar Sweetened Yoghurt
In a 1.5% fat yoghurt base, sweetened with 8% sucrose by weight, flavoured with a proprietary strawberry flavour @ 0.015% several different N-acyl aminoacids were added.
(§1) Samples were prepared and evaluated by expert tasters. Tasters were asked to describe the samples focusing on authentic taste, mouthfeel, fullness, salty-ness, salivation, umami, sweetness, juiciness, richness, long lastingness and fattiness.
Test in a Strawberry Yoghurt
Base: Yoghurt 1.5% fat yoghurt, 8% sucrose, proprietary strawberry flavour @ 0.015%
Samples were evaluated by expert tasters. Tasters were asked to describe the samples focusing on authentic taste, mouthfeel, fullness, salivation, salty-ness, umami, sweetness, juiciness, richness, long lastingness and fattiness.

[6] = Tasting in spreadable cheese; settings: 0.5 PPM in spreadable cheese (Eru)
Description: (§2) The following formulations were prepared and tasted by trained panelists.
as §1
Test on “Eru Prestige” Spreadable Cheese
Base is Eru prestige (market product)
(§3) Samples were prepared and evaluated by expert tasters. Tasters were asked to describe the samples focusing on authentic taste, mouthfeel, fullness, salivation, salty-ness, umami, sweetness, juiciness, richness, long lastingness and fattiness.

Tasting in cheese sauce = settings: 0.5 PPM in cheese sauce 5% fat 1.6% salt
Description: as §2
Cheese sauce: 5% fat 1.6% salt
as §3
Cheese Sauce: 5% Fat 1.6% Salt

[7] = Tasting in UHT milk, cream flavoured; settings: 2 ppm, cream flavour 0.03%
Description: The following tests were carried out on dairy products processed by fermentation, pasteurization or UHT. The products contain fat, protein and calcium.
UHT Milk Cream Flavoured, Non Sweetened and Different Fat Levels
In a UHT milk containing 0%, 1.5% and 3% fat, flavoured with a proprietary cream flavour closed at 0.03% C18:2 gaba was added at 2 ppm.
Samples were evaluated by expert tasters.
Tasters were asked to describe the samples focusing on authentic taste, mouthfeel, fullness, salivation, sweetness, juiciness, richness, long lastingness and fattiness. The results are presented below:—

Tasting in fish sauce = test: Tasting in fish sauce
Description: as §2
Salt level pure product between 5-40%
Salt level in application 0.3-1.0%
as §3

[8] = Tasting in yoghurt, cream flavoured; settings: 2 ppm, cream flavour 0.03%
Description: Yoghurt Cream Flavoured, Non-Sweetened and Different Fat Levels
In a Yoghurt containing 0% 1.5% and 3% fat, flavoured with proprietary cream flavour dosed at 0.03%, C18:2-gaba was added at 2 ppm. Samples were evaluated by expert tasters. Tasters were asked to describe the samples focusing on authentic taste, acidity, mouthfeel, fullness, salivation, sweetness, juiciness, richness, long lastingness and fattiness.

Test on Breezer Orange = settings: 0.5 ppm, 4% alcohol
Description: Samples were evaluated by expert tasters. Tasters were asked to describe the samples focusing on authentic taste, alcohol impact, juiciness, mouthfeel, fullness, salivation, sweetness, bitterness, richness, long lastingness and fattiness.

[9] = Tasting in mango juice drink, 1% clear mango juice; settings: 8% sucrose, 0.1% citric acid, mango flavour 0.05%
Method in brief: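 Expert tasters described a still beverage of water, 8% sucrose, 0.1% citric acid, 1% clear mango juice and mango flavour at 0.05%. C18:2-gaba and C18:2-Pro were added separately and in combination. Attributes scored included authentic taste, mouthfeel, juiciness, salivation, sweetness, umami and long lastingness.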

Which results are given for `CCCCC/C=C\C/C=C\CCCCCCCC(=O)NCCCC(=O)O` [C18:2-gaba]?
tasting result [1]: fatty mouthfeel, creamy strawberry, fruity and juicy; tasting result [2]: fatty skin-like, very thick juicy, authentic mango, long lasting mango taste, rich; tasting result [3]: fatty, long lasting authentic vanilla, vanilla bean taste is enhanced; tasting result [4]: strongly enhanced alcohol effect, more cocoa, very creamy and long lasting aftertaste; tasting result [5]: very creamy and fresh strawberry; also recorded: creamy, fruity authentic strawberry, stronger strawberry, ripe, long lasting, juicy; tasting result [6]: full salty, much more cheese bite, umami, lingering, long lasting; tasting result ([6]; listed as C18:2 gaba): Full, Salty, cheese bite, more mature; tasting result (Tasting in cheese sauce): Full, Salty, cheese bite expanding; tasting result ([7]; UHT milk 0% fat): Very creamy, milky, long lasting; tasting result ([7]; UHT milk 1.5% fat): very creamy, milky, long lasting, salivating; tasting result ([7]; UHT milk 3.0% fat): very creamy, milky, long lasting, taste like whipped cream; tasting result (Tasting in fish sauce; 0.5 ppm in 1% diluted fish sauce (0.27% salt)): stronger in umami, longer lasting and richer; tasting result (Tasting in fish sauce; 0.5 ppm in pure fish sauce (27% salt)): strong in body and mouthfeel, more salty, richer with more rounded fish notes; tasting result ([8]; yoghurt 0% fat): less acidic, slight creamy aftertaste; tasting result ([8]; yoghurt 1.5% fat): very creamy, thick, nice long lasting, whipped cream note; tasting result ([8]; yoghurt 3% fat): less acidic, much more creamy, very long lasting creamy aftertaste; tasting result (Test on Breezer Orange): more alcoholic, sweeter, more juicy orange, less soapy; tasting result ([9]; 1 ppm): fatty skin-like, very juicy, authentic mango, much more mouthfeel, long lasting mango taste, mouthfeel is close to the full juice product; tasting result ([9]; 2 ppm): fatty skin like, juicy, authentic

From patent US11091429B2, “Organic compounds” (Givaudan SA, priority 2012, dated 2021)
